Measured values as given in patent publication US20260263361A1, “CANNABIDIOL AQUEOUS SOLUTION COMPOSITION AND CANNABIDIOL-CONTAINING PHARMACEUTICAL PREPARATION COMPRISING SAME” (priority 2023, published 2026).

What was measured:
[1] = Long-term stability of CBD-containing film: CBD content by HPLC after storage under harsh conditions; format: physicochemical
Procedure: The long-term stability of the orally disintegrating film of Example 2, having the composition of Table 6, was evaluated.
For comparison, the long-term stability of CBD in the orally disintegrating film containing CBD-prepared according to the composition shown in Table 7 and corresponding to Korean Patent Application No. 10-2019-0097649—was evaluated as Comparative Example 2.
Immediately after film formation, the films were packaged in airtight containers and left under harsh conditions for 0, 24, and 72 hours, after which the CBD content was analyzed by high-performance liquid chromatography (HPLC).
Additionally, further experiments were conducted to increase the stability of the orally disintegrating film of the current Example 2.

[2] = Primary solubilizer mixed with an additional solubilizer, extent of CBD dissolution observed; format: physicochemical
Procedure: Due to the compatibility required between ingredients for use in the CBD aqueous solution formulation, additional solubilizerswere mixed with the selected primary components, and the extent of CBD dissolution was evaluated.

| SMILES | Decrease (24 hrs, %) ([1]; 24 hrs vs 0 hr) [%] | CBD content 0 hr ([1]; airtight container, 0 hr, HPLC) | CBD content 24 hr ([1]; airtight container, 24 hr, HPLC) | state of CBD in aqueous solution (FIG. 1) [2] |
| --- | --- | --- | --- | --- |
| C=C(C)[C@@H]1CCC(C)=C[C@H]1c1c(O)cc(CCCCC)cc1O [CBD isolate powder, 2-[(1R,6R)-3-methyl-6-(1-methylethenyl)-2-cyclohexen-1-yl]-5-pentyl-1,3-benzenediol] | 0.28 | 103.58 | 103.86 | – |
| OCC(O)CO [Glycerin] | – | – | – | not dissolved and appeared as precipitate or crystals |
